In patent publication US12404304B1, “Telomerase reverse transcriptase (TERT) expression enhancing compounds and methods for using the same” (Sierra Sciences, LLC, priority 2007, dated 2025):

Key:
[1] = tested on: viable cells in culture; experiment: Cell viability assay (CellTiter-Glo Luminescent Cell Viability Assay, ATP quantitation, percent of vehicle control)
[2] = tested on: human TERT expression (hTERT mRNA); experiment: Quantitative real-time RT-PCR of hTERT mRNA expression (Ct, transcripts) in compound-treated cells; type: cell-based
Summary of the method: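 Read-out is cycle threshold, the cycle at which probe fluorescence released by Taq 5′-nuclease activity crosses a set level; Ct falls as hTERT mRNA rises. cDNA of treated and untreated cells was compared, with starting transcripts quantified against a known-cDNA standard curve.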

Structure (SMILES)	Average Cell Viability after 24 Hours (% DMSO) [1] [% DMSO]	Average Number of hTERT Transcripts [2]
CC(C)C(=O)NC(c1ccc(C(C)C)cc1)c1ccc2ccccc2c1O (stereo not shown) [compound 1377]	67.09	10.23
CCC(C)c1ccccc1OCCCCN1CCN(C)CC1 (stereo not shown) [compound 1378]	89.06	11.15
O=C(O)c1ccc(NC(=S)NC(=O)c2cccc(Cl)c2)cc1 [compound 1379]	82.14	12.37
Brc1cccc(OCCCN2CCCCC2)c1 [compound 1380]	104.34	5.98
COc1ccc(C(=O)NC(=S)Nc2ccc(C(=O)O)cc2)cc1 [compound 1381]	87.38	8.62
COc1ccc(OCCCN2CCN(c3ccccc3OC)CC2)cc1 [compound 1382]	98.31	6.08
O=C(O)c1ccc(NC(=S)NC(=O)c2cccc3ccccc23)cc1 [compound 1383]	74.00	53.78
O=C(O)c1ccc(NC(=S)NC(=O)c2ccccc2I)cc1 [compound 1384]	84.52	7.88
O=[N+]([O-])c1ccc(S(=O)(=O)Nc2cc(Cl)ccc2O)cc1 [compound 1385]	78.86	21.71
O=C(Nc1ccc(OC(F)(F)C(F)F)cc1)c1ccccc1O [compound 1386]	30.71	11.93
COC(=O)COc1ccc(CSc2nnc(-c3ccc(Cl)cc3)n2-c2ccccc2)cc1 [compound 1388]	29.68	42.56
CN1CCCC(OC(=O)COc2ccc(F)cc2)C1 (stereo not shown) [compound 1389]	93.93	9.17
Cc1ccc(C)c(OCC(=O)Nc2cc(Cl)c(Cl)cc2Cl)c1 [compound 1390]	106.51	4.81
CC(=O)Nc1ccccc1NS(=O)(=O)c1cccs1 [compound 1391]	87.67	4.95
CCC(C)NC(=S)Nc1ccc(F)cc1 (stereo not shown) [compound 1392]	102.61	4.99
O=C(CCc1ccccc1)NC(c1ccc([N+](=O)[O-])cc1)c1c(O)ccc2ccccc12 (stereo not shown) [compound 1393]	62.25	23.22
CCn1c(=S)[nH]c2scc(-c3ccc(OC)cc3)c2c1=O [compound 1394]	100.14	7.00
O=C(Nc1nc2ccc([N+](=O)[O-])cc2s1)c1cncc(Br)c1 [compound 1395]	63.84	39.44

Structure (SMILES)	Average Cell Viability after 24 Hours (% DMSO) [1] [% DMSO]	Average Number of hTERT Transcripts [2]
Cc1cc(OCC(=O)Nc2ccc(S(=O)(=O)Nc3nccs3)cc2)ccc1C(C)C [compound 1396]	88.25	12.14
O=C(Oc1ccc([N+](=O)[O-])cc1)c1cc(S(=O)(=O)N2CCOCC2)cs1 [compound 1397]	96.05	5.00
CCCCN(CC)C(=O)CSc1ccccc1 [compound 1398]	87.02	8.01
COC(=O)COc1ccc2c(=O)c(Oc3ccc(-c4ccccc4)cc3)coc2c1 [compound 1400]	80.39	12.41
O=C(CSc1nc2ccccc2c(=O)n1-c1ccc(Cl)cc1)Nc1cccc(Cl)c1 [compound 1401]	96.20	7.24
Cc1oc2cc(OCC(=O)OCc3ccccc3)ccc2c(=O)c1Oc1ccccc1 [compound 1402]	86.55	29.82
COc1cc(C2C(C(=O)c3ccc(C)o3)=C(O)C(=O)N2CCCN2CCOCC2)cc(OC)c1OC (stereo not shown) [compound 1403]	95.26	9.95
COC(=O)c1ccc(NC(=O)CSc2nnc(CNC(=O)c3ccccc3)n2C)cc1 [compound 1404]	104.14	10.87
CCn1c(COc2ccc(C(C)C)cc2)nnc1SCC(=O)Nc1nccs1 [compound 1405]	110.82	3.33
COc1ccc(C2CC(=O)C3=C(C2)Nc2ccccc2N(C(=O)CCC(=O)O)C3c2cccnc2)cc1OC (stereo not shown) [compound 1406]	105.29	4.62
Cc1nn(-c2cc(N3CCN(S(=O)(=O)c4ccc(Cl)cc4)CC3)ccc2[N+](=O)[O-])c(=O)c2ccccc12 [compound 1407]	109.75	3.38
O=C(NC(c1ccccc1)c1ccc(Br)cc1)c1cccc(F)c1 (stereo not shown) [compound 1408]	89.70	3.47
COc1ccc(-c2nnc(SCC(=O)Nc3ccc(S(N)(=O)=O)cc3)o2)cc1 [compound 1409]	86.13	18.63
O=C(Nc1nc(COc2ccccc2)cs1)c1sc2cc(Cl)ccc2c1Cl [compound 1410]	75.12	8.90
CC(C)(C)c1ccc(C(=O)NC(=S)Nc2c(Cl)cc(Cl)cc2Cl)cc1 [compound 1411]	92.66	10.04
CCOC(=O)c1ccc(NC(=O)CSc2nnc(-c3ccc(OC)cc3)o2)cc1 [compound 1412]	92.98	6.19
CCOC(=O)COc1ccc(S(=O)(=O)Nc2ccc(C(=O)OC)cc2)cc1 [compound 1413]	80.11	25.20
